Literature values as cited in patent publication US20110034521A1, “COMPOUNDS AND METHODS FOR TREATING ZINC MATRIX METALLOPROTEASE DEPENDENT DISEASES” (priority 2007, published 2011).

How the values were obtained:
[1] = Wojtowwicz-Praga et al. 1997
[2] = Sparano et al. 2004

Compound | water solubility [1] | toxicity [2]
CNC(=O)[C@H](Cc1ccccc1)NC(=O)[C@H](CC(C)C)[C@H](CSc1cccs1)C(=O)NO [Batismastat] | poor water solubility | 
CNC(=O)[C@@H](NC(=O)[C@H](CC(C)C)[C@H](O)C(=O)NO)C(C)(C)C [Marimastat] |  | musculoskeletal toxicity
